According to article PMC7143835, “Anti-Hyperglycemic Effects of Green Crab Hydrolysates Derived by Commercially Available Enzymes” (Foods, 2020):
Values after ≈ are worked out from the molar mass of the structure shown.

Target: T1, rat intestinal α-glucosidase
T1 construct: gene Si; crude buffer extract of rat intestinal acetone powder; mixture of brush-border alpha-glucosidases
Assay: p-nitrophenyl glucopyranoside hydrolysis, absorbance at […] nm
Format: biochemical
Details: 5 mM p-NPG stock (printed as beta anomer; 50 µL in 200 µL assay), 0.1 M sodium phosphate pH 6.9, 0.9% NaCl, 37 °C, 10 min preincubation; positive control; crude extract

SMILES: C[C@H]1O[C@H](O[C@H]2[C@H](O)[C@@H](O)[C@@H](O[C@H]3[C@H](O)[C@@H](O)C(O)O[C@@H]3CO)O[C@@H]2CO)[C@H](O)[C@@H](O)[C@@H]1N[C@H]1C=C(CO)[C@@H](O)[C@H](O)[C@H]1O (stereo partly shown) [acarbose]
- IC50: 27 µg/mL (≈ 41.8 µM)
